According to US20180085356A1, “METHOD OF TREATING DISEASE CHARACTERISED BY PROTEIN AGGREGATE DEPOSITION IN NEURONAL CELLS” (CHRONOS THERAPEUTICS LIMITED, priority 2013, published 2018):

Tests used:
caspase-3 = assay: Motor neuron culture with Aβ1-42 insult: caspase-3 induction; format: cell-based, rat; conditions: all 3 concentrations, greatest effect at 100 nM; control increased by 91%
Procedure: Primary motor neuron (MN) cultures generated from rat spinal cord were treated with 20 μM amyloid beta 1-42 peptide (Aβ1-42). This insult causes an acute increase in TDP-43 levels in the cells and serves as a model for the TDP-43 mislocalisation, aggregation and toxicity observed in the motor neurons of ALS patients (reviewed in Callizot et al, poster “Amyloid peptide and cytoplasmic TDP-43 accumulation in pathogenesis of ALS: an in vitro study”, http://www.neuro-sys.fr/IMG/pdf/poster_adpd2017_tdp43.pdf). This model was used to determine the effect of tacrolimus on TDP-43 toxicity in motor neurons.
A separate group of cells was incubated with a) mouse monoclonal anti-microtubule-associated-protein 2 (MAP-2) antibody, and b) rabbit polyclonal anti-caspase-3 antibody. This group was used to determine the number of caspase-3-positive MN, i.e. the number of overlapping MAP-2 and caspase-3-positive cells.

ALS = conditions: Pong et al., Current Drug Targets 2003; cited from earlier work

C=CC[C@@H]1/C=C(\C)C[C@H](C)C[C@H](OC)[C@H]2O[C@@](O)(C(=O)C(=O)N3CCCC[C@H]3C(=O)O[C@H](/C(C)=C/[C@@H]3CC[C@@H](O)[C@H](OC)C3)[C@H](C)[C@@H](O)CC1=O)[C@H](C)C[C@@H]2OC [tacrolimus, Tacrolimus]
caspase-3 levels in response to Aβ1-42 insult (caspase-3): increase was less
efficacy in the treatment of ALS (ALS): ineffective
